The source of these data is ChEMBL document CHEMBL3714753, “Substituted tetrahydroquinolines, phenylacetic acids and benzoic acids as hepatocyte nuclear factor 4 (hnf-4 ) modulator compounds” (2005).

Usually IC50 stands for the concentration at which inhibition is half-maximal. One may read the EC50 as the concentration giving half of the maximal effect. As a reminder, the Ki is a measure of affinity in units of concentration, obtained from inhibition or displacement.

The target in the first test is T1, Hepatocyte nuclear factor 4-alpha (Rattus norvegicus, UniProt P22449).
T1 sequence (P22449 whole entry): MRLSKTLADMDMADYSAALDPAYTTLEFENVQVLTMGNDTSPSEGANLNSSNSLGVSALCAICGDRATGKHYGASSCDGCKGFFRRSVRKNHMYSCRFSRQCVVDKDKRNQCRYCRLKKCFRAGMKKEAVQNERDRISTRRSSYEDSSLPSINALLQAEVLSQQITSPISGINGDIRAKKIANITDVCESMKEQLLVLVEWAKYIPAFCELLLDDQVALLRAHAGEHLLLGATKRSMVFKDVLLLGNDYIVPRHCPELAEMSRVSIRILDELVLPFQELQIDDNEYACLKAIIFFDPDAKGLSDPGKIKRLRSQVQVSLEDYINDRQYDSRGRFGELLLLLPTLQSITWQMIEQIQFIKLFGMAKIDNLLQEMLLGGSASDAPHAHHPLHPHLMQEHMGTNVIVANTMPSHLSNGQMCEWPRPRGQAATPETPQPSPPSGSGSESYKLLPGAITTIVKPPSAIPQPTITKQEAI
The experiment in a line: Antagonist activity against rat HNF4alpha1 expressed in African green monkey CV1 cells assessed as inhibition of LGOI00695-induced receptor activation incubated for 24 hrs by firefly luciferase reporter gene assay. It counts as functional, cell-based, CV-1.
Conditions: not given
In general terms: In a reporter assay the amount or activity of a reporter protein is the signal.
On to `O=C(O)c1ccc(C2Nc3ccc4ccccc4c3[C@H]3OCCC[C@@H]23)cc1` (relative stereo), for which the IC50 came to 300 nM.

A further test has as its target T2, Hepatocyte nuclear factor 4-alpha (Rattus norvegicus) (UniProt P22449).
T2 sequence (whole entry): T1 sequence (P22449 whole entry)
The experiment in a line: Antagonist activity against rat HNF4alpha1 expressed in African green monkey CV1 cells assessed as inhibition of LGOI00695-induced receptor activation incubated for 24 hrs by firefly luciferase reporter gene assay relative to control. It counts as functional, cell-based. The settings on record: CV-1.
In the case of `O=C(O)c1ccc(C2Nc3ccc4ccccc4c3[C@H]3OCCC[C@@H]23)cc1` (relative stereo), the Efficacy is 69%.

The target of a further test is T1, Hepatocyte nuclear factor 4-alpha. The experiment in a line: Agonist activity at rat HNF4alpha1 expressed in African green monkey CV1 cells incubated for 24 hrs by firefly luciferase reporter gene assay. It counts as functional, cell-based, CV-1.
Conditions: not given
`Cc1cc2c(cc1C)[C@H]1OCCC[C@H]1[C@@H](c1ccc(C(=O)O)cc1)N2` (relative stereo) had an EC50 of 1730 nM.

The compound `O=C(O)Cc1ccc([C@H]2Nc3ccccc3[C@H]3OCCC[C@@H]23)cc1` (relative stereo) yielded an EC50 of 649 nM.

In turn, `COC(=O)c1ccc([C@H]2Nc3ccccc3[C@H]3OCCC[C@@H]23)cc1` (relative stereo) registered an EC50 of 426 nM.

In turn, `O=C(O)c1ccc(C2Nc3ccc4ccccc4c3[C@H]3OCC[C@@H]23)cc1` (relative stereo) yielded a concentration giving a half-maximal response (EC50) of 778 nM.

The next test deals with T2, Hepatocyte nuclear factor 4-alpha (Rattus norvegicus). The experiment in a line: Agonist activity at rat HNF4alpha1 expressed in African green monkey CV1 cells incubated for 24 hrs by firefly luciferase reporter gene assay relative to LGOI00695. It counts as functional, cell-based. The following applies: CV-1.
For the compound `Cc1cc2c(cc1C)[C@H]1OCCC[C@H]1[C@@H](c1ccc(C(=O)O)cc1)N2` (relative stereo), the Efficacy was found to be 60%.

In the case of `O=C(O)Cc1ccc([C@H]2Nc3ccccc3[C@H]3OCCC[C@@H]23)cc1` (relative stereo), the Efficacy stood at 134%.

As to `COC(=O)c1ccc([C@H]2Nc3ccccc3[C@H]3OCCC[C@@H]23)cc1` (relative stereo), the Efficacy stood at 165%.

Turning to `O=C(O)c1ccc(C2Nc3ccc4ccccc4c3[C@H]3OCC[C@@H]23)cc1` (relative stereo), the Efficacy was found to be 42%.

For the next test, the target named is T3, Hepatocyte nuclear factor 4-alpha (Homo sapiens, UniProt P41235).
T3 sequence (P41235 whole entry): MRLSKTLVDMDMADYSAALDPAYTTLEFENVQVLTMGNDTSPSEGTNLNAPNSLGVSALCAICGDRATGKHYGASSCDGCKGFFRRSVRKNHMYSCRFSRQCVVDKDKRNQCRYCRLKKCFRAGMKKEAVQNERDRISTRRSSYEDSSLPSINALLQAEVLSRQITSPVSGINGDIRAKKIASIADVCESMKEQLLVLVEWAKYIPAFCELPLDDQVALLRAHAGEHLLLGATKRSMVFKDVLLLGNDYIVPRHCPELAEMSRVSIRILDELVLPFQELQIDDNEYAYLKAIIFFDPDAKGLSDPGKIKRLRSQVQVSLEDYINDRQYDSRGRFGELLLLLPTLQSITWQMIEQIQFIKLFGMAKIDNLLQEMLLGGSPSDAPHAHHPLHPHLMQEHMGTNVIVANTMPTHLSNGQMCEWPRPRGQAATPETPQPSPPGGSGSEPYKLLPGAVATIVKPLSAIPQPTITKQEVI
The experiment in a line: Displacement of radiolabeled methyl-4-[5,6,7,8-tetrahydro-5,5,8,8-tetramethyl-3-ethyloxy-2-naphthalenyl]benzoyl benzoate from HNF4alpha (unknown origin).
Conditions: not given
As to `O=C(O)c1ccc(C2Nc3ccc4ccccc4c3[C@H]3OCCC[C@@H]23)cc1` (relative stereo), the affinity, expressed as Ki, was 2170 nM.

On to `Cc1cc2c(cc1C)[C@H]1OCCC[C@H]1[C@@H](c1ccc(C(=O)O)cc1)N2` (relative stereo), for which the Ki worked out at 135 nM.

For `O=C(O)Cc1ccc([C@H]2Nc3ccccc3[C@H]3OCCC[C@@H]23)cc1` (relative stereo), the affinity corresponds to a Ki of 219 nM.

The compound `COC(=O)c1ccc([C@H]2Nc3ccccc3[C@H]3OCCC[C@@H]23)cc1` (relative stereo) returned a Ki of 234 nM.

`O=C(O)c1ccc(C2Nc3ccc4ccccc4c3[C@H]3OCC[C@@H]23)cc1` (relative stereo) displayed a Ki of 1080 nM.
